Measured values from the supplement of paper PMC13380429.

Key:
Details in all cases: 72 h
[1] = test system: Vero E6; assay: relative viability EC50 (midpoint between 100% and the lowest measured viability); higher = less toxic
[2] = test system: HepG2; assay: as above
[3] = test system: Caco-2; assay: drug sensitivity score (DSS) for viability; higher = more toxic; extreme values may be limits of the assay
[4] = test system: Vero E6; assay: as above
[5] = test system: U2OS; assay: as above
[6] = test system: Calu-3; assay: as above
[7] = test system: HepG2; assay: as above
[8] = test system: Caco-2; assay: cell viability relative to DMSO; higher = less toxic
[9] = test system: Vero E6; assay: as above
[10] = test system: U2OS; assay: as above
[11] = test system: Calu-3; assay: as above
[12] = test system: HepG2; assay: as above
[13] = test system: Caco-2; assay: relative viability EC50 (midpoint between 100% and the lowest measured viability); higher = less toxic
[14] = test system: Calu-3; assay: as above

Structure (SMILES) | relative viability EC50 [1] [µM] | relative viability EC50 [2] [µM] | drug sensitivity score [3] | drug sensitivity score [4] | drug sensitivity score [5] | drug sensitivity score [6] | drug sensitivity score [7] | cell viability ([8]; 1 nM) [%] | cell viability ([8]; 10 nM) [%] | cell viability ([8]; 100 nM) [%] | cell viability ([8]; 1000 nM) [%] | cell viability ([8]; 10000 nM) [%] | cell viability ([9]; 1 nM) [%] | cell viability ([9]; 10 nM) [%] | cell viability ([9]; 100 nM) [%] | cell viability ([9]; 1000 nM) [%] | cell viability ([9]; 10000 nM) [%] | cell viability ([10]; 1 nM) [%] | cell viability ([10]; 10 nM) [%] | cell viability ([10]; 100 nM) [%] | cell viability ([10]; 1000 nM) [%] | cell viability ([10]; 10000 nM) [%] | cell viability ([11]; 1 nM) [%] | cell viability ([11]; 10 nM) [%] | cell viability ([11]; 100 nM) [%] | cell viability ([11]; 1000 nM) [%] | cell viability ([11]; 10000 nM) [%] | cell viability ([12]; 1 nM) [%] | cell viability ([12]; 10 nM) [%] | cell viability ([12]; 100 nM) [%] | cell viability ([12]; 1000 nM) [%] | cell viability ([12]; 10000 nM) [%] | relative viability EC50 [13] [µM] | relative viability EC50 [14] [µM]
CCCCC/N=c1\ccn(Cc2ccccc2)c2ccccc12 | > 10 | 2.46 | 2 | 0 | 2.1 | 1.4 | 4.5 | 93.3 | 94.9 | 103 | 98.5 | 63 | 94.9 | 100 | 90.6 | 99.2 | 94.2 | 101 | 94.4 | 100 | 97.5 | 64.3 | 97 | 98.2 | 96.1 | 104 | 65.5 | 96.3 | 99.3 | 96 | 94.3 | 33.9 | – | –
NCCNC(=O)c1ccc(Cl)cn1 [lazabemide] | > 10 | > 10 | 0 | 0 | – | – | 0 | 98.1 | 95.6 | 101 | 103 | 101 | 95.6 | 99.2 | 90.8 | 91 | 104 | – | – | – | – | – | – | – | – | – | – | 99.6 | 96.4 | 113 | 114 | 125 | > 10 | –
COc1cc2nccc(Oc3ccc(NC(=O)C4(C(=O)Nc5ccc(F)cc5)CC4)cc3)c2cc1OC [cabozantinib] | 3.07 | 3.02 | 6.3 | 2.8 | 2.8 | 5.3 | 3.1 | 93 | 97.4 | 96.7 | 82 | 35 | 101 | 98 | 97.2 | 99.3 | 48 | 103 | 104 | 99 | 98.3 | 50.1 | 94.2 | 109 | 100 | 88.1 | 39.2 | 107 | 92.6 | 97.1 | 98.9 | 44.4 | 1.47 | 1.75
Nc1nc(O)c2nc(Br)n([C@@H]3O[C@@H]4COP(=O)(O)O[C@H]4[C@H]3O)c2n1 [8-bromo-cGMP] | – | > 10 | – | – | – | 0 | 0 | – | – | – | – | – | – | – | – | – | – | – | – | – | – | – | 105 | 94.3 | 107 | 90.5 | 113 | 101 | 103 | 94.6 | 110 | 108 | – | > 10
C=CC(=O)Nc1ccc2ncnc(Nc3cccc(Br)c3)c2c1 | 0.287 | – | 6.7 | 13.6 | 3 | 21 | 2.7 | 83.2 | 86.7 | 92 | 71 | 70.6 | 96.8 | 89.6 | 71 | 50.7 | 19.7 | 96.8 | 107 | 93 | 87.9 | 62.8 | 96 | 79.1 | 46.5 | 32.9 | 35.4 | 100 | 98.7 | 95.2 | 93.6 | 65 | – | 0.0229
CN(C)CCCC(=O)Nc1ccc(C(=O)Nc2cccc(Nc3ncc(Cl)c(-c4c[nH]c5ccccc45)n3)c2)cc1 [THZ1-R] | > 10 | 1.22 | 0.7 | 0 | 1.5 | 1.3 | 9.7 | 92.2 | 98.6 | 94.5 | 100 | 77.9 | 95.6 | 98 | 96.9 | 93.4 | 105 | 96.2 | 104 | 97.6 | 102 | 65.1 | 97.6 | 103 | 106 | 94.8 | 79.7 | 96 | 91.4 | 107 | 65.7 | 9.4 | > 10 | > 10
CCCN1CC(NS(=O)(=O)N(CC)CC)CC2Cc3c(O)cccc3CC21 (centres undefined) [quinagolide] | – | – | 0 | – | – | 0.3 | – | 107 | 104 | 106 | 98.9 | 96.3 | – | – | – | – | – | – | – | – | – | – | 85.9 | 110 | 95.8 | 97.5 | 86.1 | – | – | – | – | – | > 10 | > 10
O=C(O)CCCC[C@@H]1CCSS1 [thioctic-acid] | > 10 | > 10 | – | 0.8 | – | – | 0 | – | – | – | – | – | 101 | 108 | 104 | 86.5 | 90.2 | – | – | – | – | – | – | – | – | – | – | 114 | 97.9 | 111 | 106 | 120 | – | –
CCC(=O)O[C@H]1CC[C@H]2[C@@H]3CCC4=CC(=O)CC[C@]4(C)[C@H]3CC[C@]12C [TESTOSTERONE PROPIONATE] | – | – | – | 0 | 0 | – | 0 | – | – | – | – | – | – | – | – | – | – | – | – | – | – | – | – | – | – | – | – | – | – | – | – | – | – | –
CNS(=O)(=O)Nc1nccc(Cc2c(C)c3ccc(Oc4ncccn4)cc3oc2=O)c1F | – | 0.0515 | 6.7 | 10.9 | 2.5 | 13.1 | 23.5 | 99.8 | 89.4 | 82.9 | 73.4 | 62.5 | 94.6 | 92.9 | 75.4 | 57 | 50.3 | 98.2 | 97.9 | 94.3 | 85.7 | 70.8 | 105 | 96 | 70.8 | 50.1 | 40.8 | 101 | 91.8 | 38.3 | 23.8 | 13.8 | – | 0.116
CCn1cc(C(=O)O)c(=O)c2cc(F)c(N3CCNCC3)nc21 [enoxacin] | > 10 | > 10 | 0 | 0 | – | 0 | 0 | 105 | 105 | 103 | 99.2 | 99.6 | 101 | 110 | 103 | 103 | 97.6 | – | – | – | – | – | 97.7 | 103 | 106 | 105 | 107 | 105 | 105 | 99.8 | 96 | 97.6 | > 10 | > 10
CCN(CC)CCOC(=O)C(c1ccccc1)c1ccccc1 [adiphenine] | > 10 | > 10 | 0 | 0 | – | 0 | 0 | 105 | 102 | 95.1 | 98.3 | 103 | 111 | 116 | 105 | 107 | 99.2 | – | – | – | – | – | 109 | 113 | 97 | 104 | 124 | 103 | 109 | 106 | 113 | 99.1 | > 10 | > 10
Cc1nc(N)sc1-c1ccnc(Nc2ccc(N3CCOCC3)cc2)n1 [CYC116] | – | 1.38 | 1.7 | 5.1 | 4.1 | 0.7 | 7.2 | 99.3 | 87.4 | 98.8 | 87.7 | 75.1 | 100 | 103 | 99 | 80.8 | 51.6 | 104 | 102 | 103 | 89.6 | 53.7 | 104 | 109 | 101 | 105 | 75.5 | 97.9 | 106 | 97.9 | 77.8 | 28.4 | > 10 | > 10
Cn1c(=O)c2c(ncn2CC2OCCO2)n(C)c1=O [doxofylline] | – | – | – | 0 | 0 | 0 | 1.3 | – | – | – | – | – | – | – | – | – | – | – | – | – | – | – | – | – | – | – | – | – | – | – | – | – | – | –
COc1cc2c(cc1OC)C(=O)C(CC1CCN(Cc3ccccc3)CC1)C2 (centres undefined) [donepezil] | > 10 | > 10 | 0 | 0.3 | – | 0 | 0 | 103 | 102 | 104 | 91.4 | 96.4 | – | – | – | – | – | – | – | – | – | – | 91.9 | 92.4 | 96 | 92 | 94.1 | 114 | 106 | 98.8 | 102 | 91.2 | > 10 | > 10
CCOC(=O)c1ncc2[nH]c3ccc(OCc4ccccc4)cc3c2c1COC | > 10 | 1.27 | 4.3 | 0.3 | 3.1 | 1 | 9 | 99.8 | 97 | 90.6 | 79.1 | 63.7 | 91.9 | 97.3 | 87.9 | 93.5 | 85 | 96 | 94.9 | 99 | 90.9 | 64.7 | 110 | 89.2 | 96.6 | 104 | 70.9 | 102 | 105 | 101 | 69.5 | 14.1 | – | –
COc1cc(N)cn[n+]1-c1ccccc1 [amezinium] | – | – | 0 | – | – | 0 | – | 109 | 108 | 100 | 110 | 97.8 | – | – | – | – | – | – | – | – | – | – | 97.8 | 110 | 106 | 89.9 | 96.6 | – | – | – | – | – | > 10 | > 10
COCCOCCOc1ccc(C2=N[C@@](C)(C(=O)O)CS2)c(O)c1 [SP-420] | > 10 | – | 3 | 0 | 1.8 | 0 | 1.1 | 91.5 | 92.1 | 94.1 | 96 | 54 | 95 | 98.5 | 98.3 | 105 | 100 | 103 | 99.5 | 108 | 98.5 | 65.4 | 95.1 | 102 | 103 | 95.5 | 91.4 | 99.8 | 94.7 | 93 | 102 | 70.6 | – | > 10
